Data: ChEMBL document CHEMBL3507680, “University of Dundee, Gates Library screen for HepG2 cell viability”

Assay: Human HepG2 cell viability assay in 384 well format
Type: toxicity, cell-based
Set-up: dose 125 nL, time 70.5 hour; concentration not given beside the values
Conditions: HepG2 cells, read-out: Inhibition

Row | SMILES | cytotoxicity at 70.5 h
1 | Cc1nn(C)c(C)c1C1CCCN1CC(=O)NC(C1CC1)C1CC1 (configuration not stated) | -2.06%
2 | COc1ccc(SC(C)C(=O)N2CCC(C(N)=O)CC2)cc1 (configuration not stated) | -14.1%
3 | CCNC(=O)N1CCC2(CC1)CCn1c(-c3ccccc3)cnc12 | -3.37%
4 | c1ccc(-c2nc3c(c(NCc4nnc5n4CCC5)n2)CCNC3)cc1 | -7.92%
5 | Cc1cc(Cn2cc(C#N)c(=O)c3ccccc32)on1 | 8.12%
6 | CCCc1cc(NCc2noc(COC)n2)n2nccc2n1 | -4.21%
7 | CCOC1CCC2(CCN(C(=O)c3c[nH]cn3)CC2)c2ccccc21 (configuration not stated) | -6.3%
8 | O=C(CN1CCCC(c2ccn[nH]2)C1)N1CCCc2ccccc21 (configuration not stated) | 15.3%
9 | Cc1noc(C2CCN(Cc3cc(=O)n(C)c(=O)n3C)CC2)n1 | -13.2%
10 | Cn1cnnc1-c1cncc(NCc2cccc3c2OCO3)c1 | -1.67%
11 | CC(=O)N[C@@H]1CN(Cc2ccccc2C(=O)O)C[C@H]1C(C)C | 0.633%
12 | COc1ncccc1CNC(=O)N1CCC(CNC(C)=O)CC1 | -8.01%
13 | O=C(c1ccco1)N1CC[C@@H](N2CCOCC2)[C@@H]1Cc1ccncc1 | -4.82%
14 | COCC(O)CN1CCC(NC(=O)c2cccc(C)c2)CC1 (configuration not stated) | -2.52%
15 | COc1ccc(CN2CCC3(CC(=O)N(c4cccc(F)c4)C3)C2)cc1 (configuration not stated) | -10.4%
16 | COc1ccc2[nH]c(C(=O)NCC3(N)CCCC3)cc2c1 | -7.33%
17 | N#Cc1cccnc1NCc1cccnc1N1CCCCC1 | 4.49%
18 | Cc1cc(C)c(CNC(=O)C2CCCN(c3cnccn3)C2)c(=O)[nH]1 (configuration not stated) | -14.3%
19 | O=C1CCSCC(C(=O)N2CCN(C3CCCCC3)CC2)N1 (configuration not stated) | 0.692%
20 | O=C(NC1CC1)[C@H]1C[C@H]2OCC[C@H]2N(Cc2ccco2)C1 | -8.44%
21 | Cc1cc(C2CCCN2C(=O)c2csc(-c3cnn(C)c3)n2)on1 (configuration not stated) | 2.44%
22 | C[C@@H]1C[C@H]2CN(S(=O)(=O)c3ccc(F)cc3)C[C@H]2O1 | -4.41%
23 | CNC(=O)N1CCN(C(=O)N(C)C)CC2(CC(=O)N(C)C2)C1 (configuration not stated) | -20%

Row | SMILES | cytotoxicity at 70.5 h
24 | CN(C)S(=O)(=O)c1ccc(CNC(=O)c2cn3c(n2)CNCC3)cc1 | 14.9%
25 | Cc1ccc(S(=O)(=O)N2CCn3nc(C)nc3C2)c(Cl)c1 | -2.97%
26 | CC(C)[C@H](NC(=O)NC1CCS(=O)(=O)C1)C(=O)NCc1ccc(Cl)cc1 (some centres not stated) | -18.2%
27 | CC(C)c1cc(NC(=O)CN2CCCC2c2noc(C(C)C)n2)on1 (configuration not stated) | -12%
28 | Nc1cc2c(nn1)CCN(C(=O)c1ccc(Oc3cccnc3)cc1)C2 | -9.26%
29 | CN(C)c1ccc(C(=O)N2CCCN(Cc3cnn(C)c3)CC2)nn1 | -8.42%
30 | CN(CCS(C)(=O)=O)C1CCCN(Cc2noc(C3CC3)n2)C1 (configuration not stated) | 17.9%
31 | CC(Nc1ccn(Cc2ccccn2)n1)C(=O)NC(C)(C)C (configuration not stated) | -7.21%
32 | CCn1nc(CC(C)C)cc1C(=O)N1CCN([C@H]2CCCC[C@@H]2O)CC1 | -2.99%
33 | CSc1ccc(CNC(c2ccccc2F)c2nccn2C)cc1 (configuration not stated) | 0.516%
34 | CCOc1nnc(CN2CCN(CCOC)CC2)s1 | 16.4%
35 | Cc1ccc(CN(C)C(=O)CN2CCCCC2Cn2cncn2)o1 (configuration not stated) | 17.9%
36 | O=S(=O)(Nc1cnc(N2CCCC2)nc1)c1ccc(OC(F)(F)F)cc1 | -4.76%
37 | CSCc1cccc(S(=O)(=O)NCCCO)c1 | -6.9%
38 | CN(C)CCN1CCN(Cc2cccs2)Cc2cccnc21 | -0.769%
39 | Cc1c(Cl)cccc1NC(=O)c1nc[nH]n1 | 19.3%
40 | CCc1ccc(C(=O)O)cc1S(=O)(=O)Nc1ccc(=O)n(C)c1 | 5.54%
41 | Cc1cc(C(=O)NC2CCCOc3cc(Cl)ccc32)n(C)n1 (configuration not stated) | -5.69%
42 | CCC(C)N(Cc1cnc(OC)nc1)Cc1ccsc1 (configuration not stated) | -3.9%
43 | Cc1nc(COC(=O)c2cccnc2C)no1 | -5.39%
44 | CCCC(C)C(=O)N1CCC(c2cc(N3CCOCC3)nc(C)n2)CC1 (configuration not stated) | -1.55%
45 | CNC(=O)c1ccc(C2CN(C(=O)c3cnn(C)c3)CCO2)nc1 (configuration not stated) | -4.81%
46 | COc1ccc(-c2cc(C3CCCCCN3S(C)(=O)=O)on2)cc1 (configuration not stated) | -2.6%

Row | SMILES | cytotoxicity at 70.5 h
47 | CCN(CC(C)C#N)C(=O)CNc1ccc(C(N)=O)c(C)c1 (configuration not stated) | -1.05%
48 | CCc1nnc2n1CCN(C(=O)c1cc(Br)c[nH]1)C2 | -5.11%
49 | CC(=O)Nn1c(C)cc(CN2CCC(c3ccncc3)CC2)c1C | -2.26%
50 | O=C1CC(c2ccccc2F)c2c(n3ccsc3nc2=O)N1 (configuration not stated) | -14%
51 | COCCNC(=O)C1(c2ccccc2C)CCOCC1 | 17.1%
52 | CCCn1c(C)c(CC(=O)NC(C)CO)c2c1CC(C)(C)CC2=O (configuration not stated) | 9.89%
53 | COc1ccccc1C(C)N(C)Cc1nc2c(cnn2C)c(=O)[nH]1 (configuration not stated) | -8.94%
54 | CCC(Cn1ccnc1)n1cnc2scc(C)c2c1=O (configuration not stated) | 13.9%
55 | COc1ccccc1OCCNC(=O)CN1CCc2cncnc2C1 | -5.72%
56 | CCc1c(C(=O)N2CCOC(C)(C)C2)cnn1-c1ccccn1 | -2.04%
57 | O=C1OCCN1Cc1cc(C(F)(F)F)ccc1F | -7.38%
58 | CCN1N=C(C(=O)N2CCCC(c3nc(C)cs3)C2)CCC1=O (configuration not stated) | -2.03%
59 | NC(=O)c1cccnc1N1C[C@@H]2CC[C@H](C1)N(Cc1ccccn1)C2=O | 5.12%
60 | Cc1ncc2c(n1)CN(CC(=O)Nc1ccc(Cl)cn1)CC2 | -13.8%
61 | CN(Cc1cc2n(n1)CCNC2)Cc1cc(-c2ccccn2)no1 | -5.4%
62 | Cc1nn(C)c(N(C)C)c1CNCc1ccc(C(=O)N(C)C)cc1 | 4.69%
63 | Cc1ccc(CN2C[C@H]3C[C@H](C(=O)Nc4cccnc4)[C@@H](C2)O3)cc1 | 2.68%
64 | CN(C)C(=O)COC1COC2(CCN(c3cnccn3)CC2)C1 (configuration not stated) | 1.25%
65 | Cn1ncc(C(=O)O)c1C(=O)Nc1nc2ccc(Br)cc2s1 | 14.8%
66 | OCC1(O)CCCN(Cc2ccccc2OCCc2ccccc2)CC1 (configuration not stated) | -5.14%
67 | Cc1nn(-c2ccccc2)nc1C(=O)N1CCCC1c1cnn(C)c1 (configuration not stated) | -18.4%
68 | CSc1ncccc1C(=O)N1C[C@H]2CC[C@@H]1CN(C(C)=O)C2 | -6.7%
69 | CCOc1ccc(NC(=O)c2oc(CC)cc2C)cc1CO | -3.11%

Row | SMILES | cytotoxicity at 70.5 h
70 | Cn1cc(CNC2CCc3c(ccc(=O)n3C)C2)cn1 (configuration not stated) | -2.72%
71 | COc1ccc(-c2csc3c2c(N)nc(=O)n3CCN(C)C)cc1 | -7.62%
72 | CN1CCC(N2CCCC(C(=O)N3Cc4ccccc4C3)C2)CC1 (configuration not stated) | -14.7%
73 | COCC(O)CNc1cncc(Br)c1 (configuration not stated) | -2.5%
74 | CCn1cc(CN2CCCn3nc(CCC(=O)NCCO)cc3C2)cn1 | -3.88%
75 | Cc1cnn(CC2CCCCN2CC(=O)Nc2cccnc2)c1 (configuration not stated) | 0.635%
76 | O=C(Nc1ccccc1OCC1CCCCO1)c1ccc(O)nc1 (configuration not stated) | -13%
77 | COc1ccc2c(c1)OC1(CCN(Cc3ccccc3C)CC1)CC2=O | -3.9%
78 | O=C(O)c1cc(-c2ccoc2)cc(S(=O)(=O)NC2CC2)c1 | -6.76%
79 | O=C(CSC1=NS(=O)(=O)c2cc(F)ccc2N1)Nc1ccc(Cl)c(Cl)c1 | 19.7%
80 | O=C(O)c1ccnc(-c2ccnc(COc3ccccc3Cl)n2)c1 | -7.03%
81 | CC(C)[C@H](NC(=O)NC1CCS(=O)(=O)C1)C(=O)NCc1ccccc1 (some centres not stated) | -19%
82 | O=C(CN1CCCC1COc1ccccc1)NCc1ccccn1 (configuration not stated) | -10.9%
83 | CN1CCN([C@@H]2CN(C(=O)c3ccsc3)[C@@H]3CCCO[C@H]23)CC1 | -2.84%
84 | CCc1cc(=O)n(CC(=O)N2CCC(C)CC2)c(-c2ccccc2)n1 | -10.3%
85 | c1csc(COC[C@H]2CCC[C@]23CN(Cc2ccoc2)CCO3)n1 | -9.63%
86 | Cc1noc(C)c1CN1C[C@H](OCC2CC2)[C@H]2COC[C@H]21 | -7.4%
87 | c1ccc(CNCC2Cn3nncc3CO2)nc1 (configuration not stated) | -7.76%
88 | Cc1cn[nH]c1C1CCCCN1C(=O)CCN1CCCCCC1 (configuration not stated) | -36.7%
89 | Cc1cc(C2CCCN2Cc2cccc(C(=O)Nc3nccs3)c2)no1 (configuration not stated) | -14.5%
90 | O=C(NC1CCS(=O)(=O)C1)c1ccc(SCc2cscn2)cc1 (configuration not stated) | -6.01%
91 | Cc1noc2ncc(C(=O)NCC3CCCOC3)cc12 (configuration not stated) | -8.17%
92 | COc1ccc2cc(C3CN(C(=O)CCNC(C)=O)CCO3)ccc2c1 (configuration not stated) | 2.84%

Row | SMILES | cytotoxicity at 70.5 h
93 | Cc1nc(C)c(C(=O)Nc2cnn(CC(=O)NC3CCCC3)c2)s1 | 14.1%
94 | COc1ccc(C(=O)NC2COc3ccccc3C2)cc1OCC(=O)O (configuration not stated) | -4.51%
95 | COCCO[C@@H]1CCN(C(=O)c2ccc(C)o2)[C@@H]1Cc1cnn(C)c1 | -2.12%
96 | COCc1nc(CNC2CCSC2)no1 (configuration not stated) | -2.87%
97 | CC(C)N(C)CCCNC(=O)c1cnn(C(C)(C)C)c1C(F)(F)F | -7.79%
98 | CCN1CCN(C(=O)C2CC(=O)N(c3cnn(C(C)C)c3)C2)CC1 (configuration not stated) | -1.53%
99 | Cc1cc(C[S+]([O-])CC(=O)NCc2ccccc2)no1 (configuration not stated) | -5.28%
100 | COc1ccc(CN2CCCn3nnc(COCC4CC4)c3C2)cc1 | -12.2%
101 | Cc1ccnc(C(NC(=O)c2oc(C)nc2C)C2CC2)n1 (configuration not stated) | -3.47%
102 | Cc1nccn1C1CCCN(C(=O)c2ccc3c(c2)nnn3C)C1 (configuration not stated) | -6.07%
103 | COc1cc(C)cc(C(C(=O)O)N2CCN(C3CCCC3)CC2)c1OC (configuration not stated) | -2.66%
104 | Cc1csc([C@@H]2C[C@@H]3CCN(Cc4cnn(C)c4)C[C@H]3O2)n1 | -8.46%
105 | CCN(CC)C(C(=O)NCc1ccc(N2CCCC2)nc1)C(C)C (configuration not stated) | 2.85%
106 | CN(C)S(=O)(=O)N1CCN(c2nccc(C(F)(F)F)n2)CC1 | -0.547%
107 | CC(C)c1ccc(S(=O)(=O)N2CSCC2C(=O)NCC(F)(F)F)cc1 (configuration not stated) | -7.38%
108 | O=C(c1cc2c(s1)CCC2)N1CCN(c2cnccn2)CC1 | -14.9%
109 | Cc1ccccc1OCCN1CCCC1CS(N)(=O)=O (configuration not stated) | 0.0321%
110 | CCN(C)c1ccc(CNC(=O)CCn2cc(C)cn2)cc1F | -1.28%
111 | COc1ccc2c(c1)CN(c1nc(C)cc(C)n1)CC2 | 3.73%
112 | CCc1ccccc1-n1cc(O)c(C(=O)N2CCCCC2)n1 | -4.48%
